Five molecules from patent US20250011368A1, “DLL3 TARGETING PEPTIDES AND CONSTRUCTS THEREOF” (MARIANA ONCOLOGY INC., priority 2023, published 2025) can be followed below.

Molecules are shown by their SMILES. Bridge positions count the residues as written; N and C are the ends. Square brackets hold non-standard residues; d marks the D form. Peptide text beside a SMILES is read from it. * marks the point of attachment. ξ: configuration not given here. DOTA = O=C(O)CN1CCN(CC(=O)O)CCN(CC(=O)*)CCN(CC(=O)O)CC1; Trp(5-OMe) = COc1ccc2[nH]cc(C[C@H](N)C(=O)O)c2c1; Trp(5-F) = N[C@@H](Cc1c[nH]c2ccc(F)cc12)C(=O)O; Trp(7-Me) = Cc1cccc2c(C[C@H](N)C(=O)O)c[nH]c12; Trp(7-aza) = N[C@@H](Cc1c[nH]c2ncccc12)C(=O)O; Phe(4-F) = N[C@@H](Cc1ccc(F)cc1)C(=O)O; 2Nal = N[C@@H](Cc1ccc2ccccc2c1)C(=O)O; Gly(4-THP) = N[C@H](C(=O)O)C1CCOCC1; Aze = O=C(O)[C@@H]1CCN1; Dab = NCC[C@H](N)C(=O)O; Hexanoyl = CCCCCC(=O)*; ξK = NCCCCC(N)C(=O)O Bounds are passed on as bounds.

For this test, the target named is T1, human DLL3 (Homo sapiens, UniProt Q9NYJ7).
T1 sequence (Q9NYJ7 27-618): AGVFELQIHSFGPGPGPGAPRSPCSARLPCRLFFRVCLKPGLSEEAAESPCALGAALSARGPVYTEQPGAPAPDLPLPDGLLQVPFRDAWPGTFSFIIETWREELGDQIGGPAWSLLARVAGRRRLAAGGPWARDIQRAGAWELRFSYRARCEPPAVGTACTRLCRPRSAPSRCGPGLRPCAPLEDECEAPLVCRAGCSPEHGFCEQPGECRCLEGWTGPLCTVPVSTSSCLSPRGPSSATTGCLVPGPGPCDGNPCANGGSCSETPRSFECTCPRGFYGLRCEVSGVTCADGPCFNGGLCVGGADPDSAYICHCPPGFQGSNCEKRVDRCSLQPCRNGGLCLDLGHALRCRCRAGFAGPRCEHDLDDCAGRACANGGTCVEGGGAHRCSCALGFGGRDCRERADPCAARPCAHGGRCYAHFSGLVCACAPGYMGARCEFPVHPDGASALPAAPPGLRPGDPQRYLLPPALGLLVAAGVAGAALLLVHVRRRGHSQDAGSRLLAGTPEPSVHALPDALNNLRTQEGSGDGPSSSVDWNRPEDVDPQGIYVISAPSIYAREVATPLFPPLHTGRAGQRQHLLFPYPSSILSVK
The test can be described thus: Affinity determination by Surface Plasmon Resonance (SPR). Type of test: binding. The conditions noted are these: 25° C., biotinylated human DLL3 immobilized on streptavidin sensor chip, 1:1 binding model; read-out: SPR KD. The method, boiled down: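 Kinetic and affinity constants were derived by fitting sensorgrams to a 1:1 binding model. Graded compound concentrations flowed at 100 μL/minute in 20 mM phosphate running buffer with 2% DMSO over streptavidin-immobilized biotinylated human DLL3, reference-subtracted.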
Consider `CC[C@H](C)[C@H](NC(=O)[C@@H](NC(=O)[C@H](Cc1c[nH]c2ccccc12)NC(C)=O)[C@@H](C)O)C(=O)N[C@H]1CSSC[C@@H](C(=O)N[C@@H](Cc2c[nH]c3ccccc23)C(=O)N2CCC[C@H]2C(=O)N[C@H](CCCCNC(=O)CN2CCN(CC(=O)O)CCN(CC(=O)O)CCN(CC(=O)O)CC2)C(N)=O)NC(=O)[C@H](CC(=O)O)NC(=O)[C@H](Cc2cnc[nH]2)NC(=O)[C@H](Cc2c[nH]c3ccc(OC)cc23)NC(=O)[C@H](CC(N)=O)NC(=O)[C@H](CC(N)=O)NC1=O` [compound 86, Ac-W-T-I-C(3)-N-N-(5Ome-W)-H-D-C(3)-W-P-[D-Lys(DOTA)]-NH2] (Ac-WTICNN[Trp(5-OMe)]HDCWP[dK](DOTA)-NH2; disulfide 4-10), for which the dissociation constant (Kd) was 10 to 100 nM.
Regarding `CCCCCC(=O)NCC[C@@H]1NC(=O)[C@H](Cc2c[nH]c3ccccc23)NC(=O)[C@H](CC(N)=O)NC(=O)[C@H](CC(N)=O)NC(=O)[C@@H](NC(=O)[C@@H](NC(=O)[C@@H](NC(=O)[C@H](Cc2c[nH]c3ccccc23)NC(C)=O)[C@@H](C)O)[C@@H](C)CC)CSSC[C@@H](C(=O)N[C@@H](Cc2c[nH]c3ccccc23)C(=O)N2CCC[C@H]2C(=O)N[C@H](CCCCNC(=O)CN2CCN(CC(=O)O)CCN(CC(=O)O)CCN(CC(=O)O)CC2)C(N)=O)NC(=O)[C@H](CC(=O)O)NC1=O` [compound 92, Ac-W-T-I-C(3)-N-N-W-(DAB-4-NHCOC5H11)-D-C(3)-W-P-[D-Lys(DOTA)]-NH2] (Ac-WTICNNW[Dab](Hexanoyl)DCWP[dK](DOTA)-NH2; disulfide 4-10), the Kd fell in the range of 10 to 100 nM.
For the molecule `CC(=O)N[C@@H](Cc1c[nH]c2ccc(F)cc12)C(=O)N[C@H](C(=O)N[C@H](C(=O)N[C@H]1CSSC[C@@H](C(=O)N[C@@H](Cc2c[nH]c3ncccc23)C(=O)N2CC[C@H]2C(=O)NC(CCCCNC(=O)CN2CCN(CC(=O)O)CCN(CC(=O)O)CCN(CC(=O)O)CC2)C(N)=O)NC(=O)[C@H](CC(=O)O)NC(=O)[C@H](Cc2cnc[nH]2)NC(=O)[C@H](Cc2ccc(F)cc2)NC(=O)[C@H](CC(N)=O)NC(=O)[C@H](CC(N)=O)NC1=O)C1CCOCC1)[C@@H](C)O` (stereo partly drawn) [compound 123, Ac-(5Fluoro-W)-T-(THPG)-C(3)-N-N-(4Fluoro-F)-H-D-C(3)-(7Aza-W)-(Aze)-[D-Lys(DOTA)]-NH2] (Ac-[Trp(5-F)]T[Gly(4-THP)]CNN[Phe(4-F)]HDC[Trp(7-aza)][Aze][ξK](DOTA)-NH2; disulfide 4-10), the Kd lay in the range of 10 to 100 nM.
With `CC[C@H](C)[C@H](NC(=O)[C@@H](NC(=O)[C@H](Cc1c[nH]c2ccccc12)NC(C)=O)[C@@H](C)O)C(=O)N[C@H]1CSSC[C@@H](C(=O)N[C@@H](Cc2c[nH]c3ccccc23)C(=O)N2CCC[C@H]2C(=O)NCC(=O)NCC(=O)N[C@@H](CO)C(=O)NCC(=O)NCC(=O)N[C@@H](CO)C(=O)N[C@H](CCCCNC(=O)CN2CCN(CC(=O)O)CCN(CC(=O)O)CCN(CC(=O)O)CC2)C(N)=O)NC(=O)[C@H](CC(=O)O)NC(=O)[C@H](Cc2cnc[nH]2)NC(=O)[C@H](Cc2ccc3ccccc3c2)NC(=O)[C@H](CC(N)=O)NC(=O)[C@H](CC(N)=O)NC1=O` [compound 231, Ac-W-T-I-C(3)-N-N-(2Nal)-H-D-C(3)-W-P-G-G-S-G-G-S-[D-Lys(DOTA)]-NH2] (Ac-WTICNN[2Nal]HDCWPGGSGGS[dK](DOTA)-NH2; disulfide 4-10), the Kd is less than 1 nM.
In the case of `CC[C@H](C)[C@H](NC(=O)[C@@H](NC(=O)[C@H](Cc1c[nH]c2ccccc12)NC(C)=O)[C@@H](C)O)C(=O)N[C@H]1CSSC[C@@H](C(=O)N[C@@H](Cc2c[nH]c3ccccc23)C(=O)N2CCC[C@H]2C(=O)N[C@H](CCCCNC(=O)CN2CCN(CC(=O)O)CCN(CC(=O)O)CCN(CC(=O)O)CC2)C(N)=O)NC(=O)[C@H](CC(=O)O)NC(=O)[C@H](Cc2cnc[nH]2)NC(=O)[C@H](Cc2c[nH]c3c(C)cccc23)NC(=O)[C@H](CC(N)=O)NC(=O)[C@H](CC(N)=O)NC1=O` [compound 295, Ac-W-T-I-C(3)-N-N-(7-Me-W)-H-D-C(3)-W-P-[D-Lys(DOTA)]-NH2] (Ac-WTICNN[Trp(7-Me)]HDCWP[dK](DOTA)-NH2; disulfide 4-10), the Kd is less than 1 nM.

What is called Kd is the concentration at which binding is half-saturated.
